Columns and labels:
LN229 cells = assay: Cell viability assay, LN229 cells; assay type: cell-based, human; settings: Homo sapiens, LN-229, LN229 cells, read-out: Inhibition of Cancer Cell Growth (IC50)
Experimental: Each of the compounds was used to treat the cancer LN229 cells and examined first by western and dot blot assays for the degradation of SUMO1 protein and then by cell viability assay for the IC50 values of anticancer activity.
(§1) LN229 cell were treated with a series of dilutions of CPD1 and examined by cell viability assay for cell growth inhibition (FIG. 2B). […] Therefore, CPD1 acts as the degrader of SUMO1 protein and inhibitor of SUMO1 conjugation in cancer cells.

SUMO1 [1] = assay: Ubiquitination of Flag-SUMO1 (immunoprecipitation, western blot) in co-transfected LN229 cells; assay type: cell-based, human; settings: LN229 cells co-transfected with Flag-SUMO1-GV and HA-UB-WT
Description: (§2) The non-conjugated Flag-tagged SUMO1 (Flag-SUMO1-GV) and the HA-tagged wild type (WT) UB (HA-UB-WT) were co-transfected in LN229 cells.

[2] = system: NCI-60 panel cancer cell lines; assay: Cell growth analysis of NCI-60 panel cancer cell lines; assay type: cell-based, human; settings: FIG. 5C
colon HCT116 xenografts = assay: Subcutaneous xenografts of colon HCT116 cancer cell line in nude mice; assay type: in vivo
Experimental: (§3) For the therapeutic effects of the compounds, we examined the effects of CPD1 and CPD24 on various types of cancer xenografts in mice. […] NOD/SCID mice bearing intracranial brain xenografts of glioblastoma LN229 cell line were treated with CPD1.

lung A549 xenografts = assay: Subcutaneous xenografts of lung A549 cancer cell line in nude mice; assay type: in vivo
Experimental: as §3

[3] = system: intracranial glioblastoma LN229 xenografts; assay: Intracranial brain xenografts of glioblastoma LN229 in NOD/SCID mice, Kaplan Meier survival; assay type: in vivo; settings: intracranial LN229, log rank test
Experimental: as §3

[4] = system: colon cancer PDX (L1206F); assay: Patient derived xenograft of colon cancer (L1206F); assay type: in vivo, mice
Description: (§4) The left two graphs show data for compounds CPD1 and the middle two graphs show data for CPD24 treatment of colon cancer PDX (L1206F). […] The right two graphs show data for compound CPD1 and CPD24 treatment of lung cancer PDX (L1102F). […] The significance of **P<0.01, and ***P<0.001 was statistically analyzed.
as §3

lung cancer PDX (L1102F) = assay: Patient derived xenograft of lung cancer (L1102F); assay type: in vivo, mice
Description: as §4, §3

[5] = Tolerability across all xenograft mice; assay type: in vivo; settings: over the treatment period
Experimental: as §3

log P = assay type: physicochemical
Description: (§5) For example, without limitation, pharmaceutical compositions of this compound (CPD1) can comprise a molecular weight 348 g/mol and the log P value 3.7.

[6] = Pharmacokinetics, tissue distribution and toxicity in mice, intraperitoneal administration; assay type: in vivo
Description: as §5

SUMO1 [7] = target: SUMO1 (Homo sapiens, UniProt P63165); assay: Western and dot blot assays for SUMO1 conjugation and SUMO1 protein levels in LN229 cells; assay type: cell-based; set-up: analyzed by western blotting for detection of the conjugate and free form of SUMO1 protein and dot blotting for total levels of SUMO1 protein; endogenous in cells; host or cells: LN229 glioblastoma cells; settings: LN229 cells
Chain of SUMO1 (Homo sapiens, UniProt P63165) (P63165 1-97 limits assumed): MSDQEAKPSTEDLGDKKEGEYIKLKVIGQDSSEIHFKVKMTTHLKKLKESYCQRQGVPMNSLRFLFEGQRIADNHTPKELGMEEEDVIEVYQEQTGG
Experimental: FIG. 2A illustrates how the glioblastoma LN229 cell line was treated with each of compounds of the National Cancer Institute (NCI) Diversity Set IV library and analyzed by western blot assays using SUMO1, SUMO2/3, UB and β-actin antibodies.
as §1, §2

O=C(Nc1ccc(Cl)c([N+](=O)[O-])c1)Nc1nc2ccccc2s1 [Compound 1]
IC50 (LN229 cells): ≤ 5 µM
poly-ubiquitination of SUMO1 protein (SUMO1 [1]): results in the poly-ubiquitination of SUMO1 protein
cell growth of NCI-60 panel cancer cell lines [2]: significantly inhibits the cell growth of breast, colon, lung, kidney, ovarian, prostate, skin (melanocytic) and blood (leukemic) cancers
xenograft progression (colon HCT116 xenografts): significantly suppressed xenograft progression
xenograft progression (lung A549 xenografts): significantly suppressed xenograft progression
survival of xenograft mice [3]: increases the survival of xenograft mice
body weight of mice [4]: had no effects on the body weight of mice
tumor growth (tumor sizes) [4]: significantly inhibits the tumor growth of the colon cancer PDXs
mouse body weight (lung cancer PDX (L1102F)): no effects of the treatment on mouse body weight
PDX growth (lung cancer PDX (L1102F); CPD24 25 and 50 mg/kg, CPD1 100 mg/kg): markedly inhibits the PDX growth
tolerability, clinical signs [5]: well tolerated over the treatment period with no clinical signs of lethargy, ataxia, paralysis, seizure or weight loss
logP (log P): 3.7
blood brain barrier crossing ([6]; distribution in brain tumors): can cross the blood brain barrier
toxicity to normal tissues, side effects ([6]; mice, intraperitoneal administration): no toxicity to normal tissues or side effects on mice
pharmacokinetics and tissue distribution ([6]; mouse cancer xenografts, intraperitoneal administration): sufficient for degrading SUMO1 protein in mouse cancer xenografts
conjugated, free form and total levels of SUMO1 protein (SUMO1 [7]; western and dot blotting): reduces the conjugated, free form and total levels of SUMO1 proteins
selectivity of inhibition of conjugation (SUMO1, SUMO2/3, UB) (SUMO1 [7]; western blot, FIG. 2A): selectively inhibiting the conjugation of SUMO1 but not SUMO2/3 or UB

Reference: US11731985B2, “Compositions and methods for treating cancer” (Hb Therapeutics Inc., priority 2018, dated 2023)
